These are literature values, as cited in US5385885A, “Inhibition of smooth muscle cell proliferation by antistasin and tick anticoagulant peptide” (priority 1991, dated 1995).

Data set [1] concerns smooth muscle cells of rat carotid arteries. Particulars: site-delivered; after balloon catheterization; Edelman et al.; cited from earlier work.
Data set [2] relates to smooth muscle cell proliferative response to balloon catheter injury. Particulars: rat model; Powell et al.; cited from earlier work.
For data set [3], the system named is smooth muscle proliferative responses. The conditions noted are these: doses sufficiently high to prevent platelet adherence and release; Harker et al.; cited from earlier work.

Turning to heparin, the “Proliferation of smooth muscle cells” value in data set [1] is listed as “effectively diminished”.

With `CCOC(=O)[C@H](CCc1ccccc1)N[C@H]1CCCN2CCC[C@@H](C(=O)O)N2C1=O` [cilazapril], in data set [2], the “Smooth muscle cell proliferative response to balloon catheter injury” value is recorded as “specifically inhibits”.

In the case of `OCCN(CCO)c1nc(N2CCCCC2)c2nc(N(CCO)CCO)nc(N3CCCCC3)c2n1` [dipyridamole], the “Smooth muscle proliferative responses” value in data set [3] is on record as “prevented”.
